Patent US9346769B2, “Tetrazolones as inhibitors of fatty acid synthase” (Infinity Pharmaceuticals, Inc., priority 2010, dated 2016)

Target: T1, human FASN (Homo sapiens, UniProt P49327)
T1 construct: was purified from SKBR3 cells using procedures modified from those in Jayakumar et al; endogenous in cells; host or cells: SKBR3 human breast cancer cells (ATCC); Endogenous enzyme purified by ammonium sulfate precipitation and a mono Q column
Assay: FASN NADPH Consumption Assay
Format: biochemical
Details: human FASN purified from SKBR3 cells; starred symbols
Procedure: Human FASN protein (SEQ ID NO. 1) was purified from SKBR3 cells using procedures modified from those in Jayakumar et al. PNAS 1995, 92:8695-8699. SKBR3 cells were obtained from ATCC and grown in DMEM high glucose medium supplemented with 10% FBS, 1 μg/mL bovine pancreas insulin, 100 U/mL penicillin and 100 µg/mL streptomycin. The confluent cells were trypsinized and washed three times with PBS buffer before frozen in liquid N2 and stored at −80° C. Frozen cells were thawed on ice and resuspended in lysis buffer (25 mM Tris-HCl, pH 7.0, 15 mM NaCl, 1 mM EDTA, and 1 mM DTT) with protease inhibitors. The cells were lysed by sonication, and the cell debris was removed by centrifugation at 20,000 rpm for 30 min. To the supernatant, neutralized saturated ammonium sulfate solution was added to a final concentration of 35%. The solution was left on ice for 1 hr, and the precipitated proteins were harvested by centrifugation at 20,000 rpm for 30 min. The proteins were redissolved in lysis buffer without NaCl and loaded on a mono Q column. Bound proteins were eluted with a linear gradient of NaCl in lysis buffer. Each fraction was analyzed by SDS-PAGE and FASN NADPH consumption assay. The fractions containing FASN were pooled and concentrated to 2-3 mg/mL. Glycerol was added to 20%, and the protein was frozen in liquid N2 and stored at −80° C.
All chemicals were purchased from Sigma (St. Louis, Mo.). The procedures of NADPH consumption assay were similar to those described in Cox et al., PNAS 1983, 80:4233-4237. On a 96-well polypropylene microplate, dilution series (typical concentrations 60 nM-1.0 mM) of test compounds were prepared in DMSO, of which 4.0 μL each was transferred to a black polystyrene assay microplate and mixed with 36 μL FASN assay buffer (50 mM potassium phosphate, pH 7.0, 1.0 mM EDTA, 0.01% NP-40) plus 5.0 mM fresh DTT. FASN protein (40 μL 150 nM FASN) was added per well, and the microplate was incubated at 37° C. for 30 min. Enzyme activity measurement was initiated by addition of 20 μL 5× substrate mixture to final concentrations of 60 nM FASN, 2.4 nM-40 μM compound, 0.2 mM NADPH, 50 μM butyryl-CoA, 0.5 mM malonyl-CoA in 100 μL assay buffer plus 5.0 mM DTT and 4.0% DMSO. NADPH consumption was monitored kinetically by fluorescence (λEx=340 nm, λEm=460 nm) on an EnVision 2100 multilabel plate reader (Perkin Elmer, Waltham, Mass.). FASN enzyme activity (slope) in the presence of 4% DMSO was used as maximum control, whereas background (minimum control) was measured by omission of malonyl-CoA in the substrate mixture. Inhibition curves were fitted by a logistic function to yield IC50 values:
Compounds were assayed as inhibitors of human FASN using the above-described FASN Scintillation Proximity Flashplate Assay (IC50; nM) or FASN NADPH Consumption Assay (*) (IC50; nM). The corresponding activity of the isolated compound is also provided along with the measured mass (ES^+).

T1 sequence (P49327 whole entry): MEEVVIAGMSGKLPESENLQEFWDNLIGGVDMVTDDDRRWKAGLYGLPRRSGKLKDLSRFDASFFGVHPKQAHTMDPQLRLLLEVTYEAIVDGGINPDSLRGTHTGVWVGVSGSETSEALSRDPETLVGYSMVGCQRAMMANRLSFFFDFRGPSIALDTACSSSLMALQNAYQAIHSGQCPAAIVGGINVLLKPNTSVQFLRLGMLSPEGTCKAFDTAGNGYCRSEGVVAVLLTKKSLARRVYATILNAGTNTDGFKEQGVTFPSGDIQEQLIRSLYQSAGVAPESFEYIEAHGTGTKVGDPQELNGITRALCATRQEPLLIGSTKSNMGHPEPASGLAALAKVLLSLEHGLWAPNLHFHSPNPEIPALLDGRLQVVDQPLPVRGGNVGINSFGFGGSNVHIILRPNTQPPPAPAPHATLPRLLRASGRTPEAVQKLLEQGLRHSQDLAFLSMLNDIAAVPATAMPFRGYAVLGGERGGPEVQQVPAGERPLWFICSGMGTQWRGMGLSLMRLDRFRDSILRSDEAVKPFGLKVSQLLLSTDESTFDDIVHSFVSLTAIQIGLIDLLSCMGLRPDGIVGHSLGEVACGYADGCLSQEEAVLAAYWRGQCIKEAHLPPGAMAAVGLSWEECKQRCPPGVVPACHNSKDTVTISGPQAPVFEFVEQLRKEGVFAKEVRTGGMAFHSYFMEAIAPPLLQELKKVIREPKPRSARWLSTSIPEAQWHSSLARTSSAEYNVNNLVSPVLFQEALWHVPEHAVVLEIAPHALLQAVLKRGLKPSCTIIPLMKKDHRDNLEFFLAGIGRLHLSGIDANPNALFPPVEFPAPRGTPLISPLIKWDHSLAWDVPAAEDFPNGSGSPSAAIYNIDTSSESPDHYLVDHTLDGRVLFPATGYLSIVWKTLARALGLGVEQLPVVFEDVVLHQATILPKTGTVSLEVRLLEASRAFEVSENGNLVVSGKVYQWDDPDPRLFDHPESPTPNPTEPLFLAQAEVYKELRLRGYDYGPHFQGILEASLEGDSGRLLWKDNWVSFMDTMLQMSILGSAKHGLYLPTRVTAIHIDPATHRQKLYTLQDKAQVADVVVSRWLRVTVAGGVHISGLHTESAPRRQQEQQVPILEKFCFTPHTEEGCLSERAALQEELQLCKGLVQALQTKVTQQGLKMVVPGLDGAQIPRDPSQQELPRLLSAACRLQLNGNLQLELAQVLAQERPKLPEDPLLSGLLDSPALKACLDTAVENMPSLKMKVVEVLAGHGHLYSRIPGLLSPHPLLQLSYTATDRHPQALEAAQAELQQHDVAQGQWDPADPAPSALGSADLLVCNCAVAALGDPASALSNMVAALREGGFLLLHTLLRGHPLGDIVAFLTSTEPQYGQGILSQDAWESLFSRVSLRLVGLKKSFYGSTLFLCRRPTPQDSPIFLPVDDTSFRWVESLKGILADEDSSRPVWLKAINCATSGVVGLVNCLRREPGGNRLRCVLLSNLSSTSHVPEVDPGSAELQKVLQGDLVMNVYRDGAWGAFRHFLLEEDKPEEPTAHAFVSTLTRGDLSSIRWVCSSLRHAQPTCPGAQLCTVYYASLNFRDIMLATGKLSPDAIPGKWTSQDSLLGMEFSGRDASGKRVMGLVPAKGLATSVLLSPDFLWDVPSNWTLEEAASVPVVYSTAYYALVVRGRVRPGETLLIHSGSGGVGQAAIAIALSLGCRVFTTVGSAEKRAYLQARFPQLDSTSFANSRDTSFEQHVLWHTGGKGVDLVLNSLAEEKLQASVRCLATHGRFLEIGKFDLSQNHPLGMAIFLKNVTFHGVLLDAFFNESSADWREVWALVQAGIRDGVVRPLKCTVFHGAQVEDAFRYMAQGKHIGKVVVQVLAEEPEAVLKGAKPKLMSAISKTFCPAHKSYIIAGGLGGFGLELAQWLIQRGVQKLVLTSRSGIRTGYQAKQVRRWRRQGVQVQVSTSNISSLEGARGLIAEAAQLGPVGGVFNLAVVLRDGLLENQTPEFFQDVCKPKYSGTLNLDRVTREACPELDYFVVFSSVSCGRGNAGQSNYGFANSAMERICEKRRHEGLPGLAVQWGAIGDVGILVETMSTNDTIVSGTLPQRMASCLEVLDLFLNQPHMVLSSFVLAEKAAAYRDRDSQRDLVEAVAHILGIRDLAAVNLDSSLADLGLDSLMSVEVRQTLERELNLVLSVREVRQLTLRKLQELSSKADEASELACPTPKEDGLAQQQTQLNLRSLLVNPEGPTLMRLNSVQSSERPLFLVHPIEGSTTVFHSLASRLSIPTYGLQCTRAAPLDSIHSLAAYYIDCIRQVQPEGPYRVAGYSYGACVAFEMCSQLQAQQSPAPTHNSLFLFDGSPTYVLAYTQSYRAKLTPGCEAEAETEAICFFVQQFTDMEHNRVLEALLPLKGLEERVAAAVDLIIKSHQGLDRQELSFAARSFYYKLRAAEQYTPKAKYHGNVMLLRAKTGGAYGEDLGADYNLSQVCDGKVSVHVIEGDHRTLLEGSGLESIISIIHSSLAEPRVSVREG

IC50 [µM]	Compound
> 10	O=C(Nc1ccccc1)n1nnn(-c2ccccc2)c1=O
0.06 to 0.25	O=C(N(c1ccccc1)c1ccccc1)n1nnn(-c2ccccc2Oc2ccccc2)c1=O
0.06 to 0.25	CCN(C(=O)n1nnn(-c2ccccc2-c2ccccc2)c1=O)c1ccccc1F
0.25 to 1	CCN(C(=O)n1nnn(-c2ccccc2OC)c1=O)c1ccc(OC)c(C(=O)O)c1
1 to 10	CCCCCCN(C(=O)n1nnn(-c2ccccc2OC)c1=O)c1cc(C(=O)OCc2ccccc2)ccc1OC
0.06 to 0.25	CCN(C(=O)n1nnn(-c2ccccc2OC)c1=O)c1ccc(C(=O)O)cc1
0.06 to 0.25	CCN(C(=O)n1nnn(-c2ccccc2OC)c1=O)c1cc(C(=O)O)ccc1OC
1 to 10	COc1ccc(C(=O)OCc2ccccc2)cc1N(CCCCc1ccccc1)C(=O)n1nnn(-c2ccccc2OC)c1=O
0.25 to 1	COc1ccc(C(=O)O)cc1N(CCCCc1ccccc1)C(=O)n1nnn(-c2ccccc2OC)c1=O
0.06 to 0.25	CCN(C(=O)n1nnn(-c2ccccc2OC)c1=O)c1ccc(C(=O)OCc2ccccc2)c(OC)c1
0.06 to 0.25	CCN(C(=O)n1nnn(-c2ccccc2OC)c1=O)c1ccc(C(=O)O)cc1OC
0.06 to 0.25	CCN(C(=O)n1nnn(-c2ccccc2OC)c1=O)c1ccc(C(=O)O)c(OC)c1
0.25 to 1	CCN(C(=O)n1nnn(-c2ccccc2OC)c1=O)c1cccc(C(=O)O)c1OC
< 0.06	COc1ccccc1-n1nnn(C(=O)N(c2ccccc2)c2ccc(C(=O)O)cc2)c1=O
0.25 to 1	CCCOc1ccc(C(=O)O)cc1N(CC)C(=O)n1nnn(-c2ccccc2OC)c1=O
0.25 to 1	CCCCCCN(C(=O)n1nnn(-c2ccccc2OC)c1=O)c1cc(C(=O)O)ccc1OC
< 0.06	CCN(C(=O)n1nnn(-c2ccccc2OC)c1=O)c1cc(C(=O)O)ccc1Cl
0.06 to 0.25	CN(C(=O)n1nnn(-c2c(F)cccc2F)c1=O)c1ccc(C#Cc2ccccc2)cc1
< 0.06	CCN(C(=O)n1nnn(-c2c(F)cccc2F)c1=O)c1cccc(C)c1
0.06 to 0.25	CCOC(=O)c1ccc(N(C(=O)n2nnn(-c3c(F)cccc3F)c2=O)N(C)C)cc1
0.25 to 1	COc1ccccc1N(C)C(=O)n1nnn(-c2c(F)cccc2F)c1=O
0.06 to 0.25	CCN(C(=O)n1nnn(-c2c(F)cccc2F)c1=O)c1ccc(C#CCC2CCCCC2)cc1F
< 0.06	CCN(C(=O)n1nnn(-c2c(F)cccc2F)c1=O)c1ccccc1[N+](=O)[O-]
0.06 to 0.25	CCN(C(=O)n1nnn(-c2c(F)cccc2F)c1=O)c1ccc(Br)cc1F
< 0.06	CN(C(=O)n1nnn(-c2c(F)cccc2F)c1=O)c1ccccc1Cl

IC50 [µM]	Compound
1 to 10	CCN(C(=O)n1nnn(-c2c(Cl)cccc2Cl)c1=O)c1cccc(C(=O)O)c1OC
0.06 to 0.25	CCN(C(=O)n1nnn(-c2c(Cl)cccc2Cl)c1=O)c1ccc(Cl)c(C(=O)O)c1
0.06 to 0.25	CCN(C(=O)n1nnn(-c2c(Cl)cccc2Cl)c1=O)c1ccc(NS(=O)(=O)C(F)(F)F)cc1
0.06 to 0.25	CCN(C(=O)n1nnn(-c2c(Cl)cccc2Cl)c1=O)c1ccc(Cl)c(C(=O)OCc2ccccc2)c1
0.06 to 0.25	CCN(C(=O)n1nnn(-c2c(Cl)cccc2Cl)c1=O)c1ccc(C(=O)OCc2ccc(OC)cc2)c(Cl)c1
0.06 to 0.25	CCN(C(=O)n1nnn(-c2c(Cl)cccc2Cl)c1=O)c1ccccc1F
< 0.06	CCN(C(=O)n1nnn(-c2c(Cl)cccc2Cl)c1=O)c1cc(C(=O)O)ccc1Cl
0.25 to 1	CC(C)N(C(=O)n1nnn(-c2c(Cl)cccc2Cl)c1=O)c1ccccc1
0.06 to 0.25	CCN(C(=O)n1nnn(-c2c(Cl)cccc2Cl)c1=O)c1cccc(C#N)c1
0.06 to 0.25	CCN(C(=O)n1nnn(-c2c(Cl)cccc2Cl)c1=O)c1ccc(C(=O)O)c(OC)c1
0.06 to 0.25	CCN(C(=O)n1nnn(-c2c(Cl)cccc2Cl)c1=O)c1ccc(C(=O)OCc2ccccc2)c(Cl)c1
0.06 to 0.25	CCN(C(=O)n1nnn(-c2c(Cl)cccc2Cl)c1=O)c1ccc(C(=O)NS(=O)(=O)c2ccccc2)cc1
0.06 to 0.25	CCN(C(=O)n1nnn(-c2c(Cl)cccc2Cl)c1=O)c1cccc(N)c1
0.06 to 0.25	CCN(C(=O)n1nnn(-c2c(Cl)cccc2Cl)c1=O)c1ccc([N+](=O)[O-])cc1
0.06 to 0.25	CCN(C(=O)n1nnn(-c2c(Cl)cccc2Cl)c1=O)c1cccc([N+](=O)[O-])c1
1 to 10	CS(=O)(=O)NCCCN(C(=O)n1nnn(-c2c(Cl)cccc2Cl)c1=O)c1ccc(C(=O)O)cc1
0.06 to 0.25	CCN(C(=O)n1nnn(-c2c(Cl)cccc2Cl)c1=O)c1ccc(C(=O)OCc2ccccc2)c(OC)c1
0.06 to 0.25	CCN(C(=O)n1nnn(-c2c(Cl)cccc2Cl)c1=O)c1cccc(CO[Si](C)(C)C(C)(C)C)c1
0.25 to 1	O=C(OCc1ccccc1)c1ccc(N(CCc2cccnc2)C(=O)n2nnn(-c3c(Cl)cccc3Cl)c2=O)cc1
1 to 10	O=C(O)c1ccc(N(CCc2cccnc2)C(=O)n2nnn(-c3c(Cl)cccc3Cl)c2=O)cc1
0.06 to 0.25	CCN(C(=O)n1nnn(-c2c(Cl)cccc2Cl)c1=O)c1ccc(C(=O)O)cc1OC
0.25 to 1	CCN(C(=O)n1nnn(-c2c(Cl)cccc2Cl)c1=O)c1ccc([N+](=O)[O-])cc1F
< 0.06	CCN(C(=O)n1nnn(-c2c(Cl)cccc2Cl)c1=O)c1cccc(C(=O)NS(=O)(=O)c2ccccc2)c1
0.25 to 1	CCN(C(=O)n1nnn(-c2c(Cl)cccc2Cl)c1=O)c1cccc(CO)c1
0.06 to 0.25	CCN(C(=O)n1nnn(-c2c(Cl)cccc2Cl)c1=O)c1ccc(N)cc1

IC50 [µM]	Compound
0.25 to 1	CCN(C(=O)n1nnn(-c2c(Cl)cccc2Cl)c1=O)c1ccccc1
1 to 10	C=CCN(C(=O)n1nnn(-c2c(Cl)cccc2Cl)c1=O)c1ccccc1
0.06 to 0.25	CCN(C(=O)n1nnn(-c2c(Cl)cccc2Cl)c1=O)c1ccc(C(=O)OCc2ccc(OC)cc2)cc1Cl
0.06 to 0.25	CN(C(=O)n1nnn(-c2c(Cl)cccc2Cl)c1=O)c1ccccc1
> 10	O=C(OCc1ccccc1)c1ccc(N(CCc2ccccc2)C(=O)n2nnn(-c3c(Cl)cccc3Cl)c2=O)cc1
0.06 to 0.25	CCN(C(=O)n1nnn(-c2c(Cl)cccc2Cl)c1=O)c1cccc(NS(=O)(=O)C(F)(F)F)c1
0.25 to 1	CCN(C(=O)n1nnn(-c2c(OC)cccc2OC)c1=O)c1ccc(C(=O)O)c(OC)c1
0.25 to 1	CCN(C(=O)n1nnn(-c2c(OC)cccc2OC)c1=O)c1ccc(C(=O)OCc2ccccc2)c(OC)c1
< 0.06	CCN(C(=O)n1nnn(-c2c(F)cccc2OC)c1=O)c1ccc(C(=O)OCc2ccccc2)c(OC)c1
0.06 to 0.25	COc1cccc(F)c1-n1nnn(C(=O)N(c2cccc(C(=O)O)c2)C2CC2)c1=O
0.25 to 1	CCCCOc1ccccc1N(CC)C(=O)n1nnn(-c2c(F)cccc2OC)c1=O
1 to 10	CCN(C(=O)n1nnn(-c2c(F)cccc2OC)c1=O)c1ccccc1C(C)(C)C
1 to 10	CCN(C(=O)n1nnn(-c2c(F)cccc2C(=O)O)c1=O)c1ccccc1Oc1ccccc1
0.06 to 0.25	CCN(C(=O)n1nnn(-c2c(F)cccc2C(=O)OC)c1=O)c1ccccc1
0.06 to 0.25	CCN(C(=O)n1nnn(-c2c(F)cccc2C#Cc2ccccc2)c1=O)c1ccccc1
0.06 to 0.25	CCN(C(=O)n1nnn(-c2c(F)cccc2C#Cc2ccccc2C)c1=O)c1ccccc1
0.06 to 0.25	CCN(C(=O)n1nnn(-c2c(F)cccc2CCc2ccccc2)c1=O)c1ccccc1
0.06 to 0.25	CCN(C(=O)n1nnn(-c2c(F)cccc2CCc2ccccc2C)c1=O)c1ccccc1
0.06 to 0.25	CCN(C(=O)n1nnn(-c2c(F)cccc2Br)c1=O)c1ccccc1
0.06 to 0.25	CCN(C(=O)n1nnn(-c2c(F)cc(F)cc2Br)c1=O)c1ccccc1
1 to 10	CN(C(=O)n1nnn(-c2ccccc2Cl)c1=O)c1ccccn1
0.25 to 1	CN(C(=O)n1nnn(-c2c(F)cccc2F)c1=O)c1ccccn1
1 to 10	CN(Cc1ccccc1)C(=O)n1nnn(-c2ccccc2Cl)c1=O
> 10	COc1ccc(CNC(=O)n2nnn(-c3c(Cl)cccc3Cl)c2=O)c(OC)c1
> 10	CN(CCc1ccccc1)C(=O)n1nnn(-c2ccccc2Cl)c1=O
